We go through one molecule from patent US5328913A, “Minoxidil analogs as inhibitors of cell proliferation and lysyl hydroxylase” (priority 1992, dated 1994).

The structures appear in SMILES notation.

Format in all cases: cell-based
The subject of assay [1] is Lysyl Hydroxylations in Human Skin Fibroblasts. The assay can be described thus: Hydroxylation of lysine residues in type I procollagen (Hyl/Lys). To be noted: for Hyl/Lys: 72 hr. The method, then: (§1) Culture of human skin fibroblasts derived from an apparently normal adult were grown to confluent densities in Dulbecco's modified Eagle's medium supplemented with 10% (v/v) fetal calf serum. Thereafter, the medium was replaced with medium supplemented with 0.5% dialyzed fetal calf serum. The cultures were treated for 72 hr with 1 mM minoxidil, 3'- hydroxyminoxidil,or 4'-hydroxyminoxidil (Upjohn) dissolved in aqueous medium. In some experiments, minoxodil was dissolved in 95% (v/v) ethanol; […]. Cultures treated with ethanol only served as the control.
During the last 6 hr of treatment, cultures were labeled with 50 μCi of L-[2,3-^3 H]proline (35 Ci/mmol) and 50 μCi of L[U-^14 C]lysine ([…]) in 4 ml of lysine-free medium supplemented with 100 μM ascorbic acid. At the end of the incubation period, the medium was removed and mixed with 1 mM each of EDTA, N-ethylmaleimide, and phenylmethylsulfonylfluoride, and the collagenous proteins were precipitated with 30% (NH4)2 SO4. The cell layer was scraped and extracted with 0.5 M acetic acid containing the protease inhibitors as above. The cell extract was neutralized, and the collagenous proteins were precipitated as above. The (NH4)2 SO4 precipitate from the medium and cell layer was separately dissolved in 0.1% SDS/10 mM Tris-HCl (pH 6.8), reduced with dithiothreitol, and analyzed by electrophoresis on 4% SDS-polyacrylamide gels. The bands corresponding to the proαl(I) and proα2(I) chains from the two fractions were pooled and hydrolyzed with 6 M HCl for 24 hr at 110° C. Proline, hydroxyproline, lysine, and hydroxylysine in the hydrolysate were separated by HPLC (Takimitsa et al, J. Dermatol. 16:37 (1989)), and their radioactivity was determined in a Beckman liquid scintillation counter. To isolate type I procollagen the precipitate from the medium and cell layer was separately dissolved in 25 mM Tris-HCl, pH 7.5, containing 2 M urea and 1 mM each of EDTA, N-ethylmaleimide, and phenylmethylsulfonylfluoride, then chromatographed on a DEAE-cellulose column (Freiberger et al, J. Invest. Dermatol. 75:425 (1980)). The procollagen isolated from the two fractions was pooled, hydrolyzed, and analyzed as above.

The next assay has as its system lysyl hydroxylase. The assay can be described thus: Lysyl hydroxylase activity in extracts of treated human skin fibroblasts (Example 1, tritium-release assay). To be noted: 0.1 mM; dissolved in HCl; final concentration 0.0012 N; 72 h (Table II footnote a).
Assay [2] concerns Collagen Synthesis in Human Skin Fibroblasts. The assay can be described thus: Collagen synthesis in human skin fibroblasts. The following applies: 1 mM, 72 hr. The procedure: as §1
During the last 6 hr of treatment, cultures were labeled with 20 μCi of L-[2,3-^3 H]proline in 1 ml of medium supplemented with 100 μM ascorbic acid. The amount of proline radioactivity incorporated into collagen in the medium and cells combined was measured after digestion with a bacterial collagenase, essentially as described previously (Freiberger et al, J. Invest. Dermatol. 75:425 (1980)).

On to `Nc1cc(N2CCCCC2)nc(N)[n+]1[O-]` [Minoxidil], for which the Hyl/Lys in assay [1] (1 mM, gel electrophoresis (Table V)) is recorded as 0.07 ± 0.02; in assay [1] (1 mM, type I procollagen chains isolated by gel electrophoresis, mean ± range of two experiments (description table)) it was 0.07 ± 0.02. Besides, the activity at 1000 µM in assay [1] (Homo sapiens, Skin fibroblast, 1 mM, 72 hr (Table V), read-out: ratio of hydroxylysine to lysine, percentage of control value) came to 32%. The “ratio of hydroxylysine to lysine, % of control” value in assay [1] (procollagen isolated by column chromatography, 4320 min) came to 50%. The “ratio of hydroxylysine to lysine, % of control value” in assay [1] (procollagen isolated by gel chromatography (so in the source), 4320 min) is recorded as 27%. Also, the “Lysyl hydroxylase activity (%)” value in the assay on lysyl hydroxylase was determined as 45%. In assay [2] (mean ± SD of duplicate analysis of two cultures (Table VII)), the “% Collagen Synthesized” value is given as 6.6 ± 0.7%. Also, the inhibition at 1000 µM in assay [2] (Homo sapiens, Skin fibroblast, compared with control, read-out: reduction of synthesis of collagen relative to that of total protein) came out at 25%.
